Where “and” joins values, the source holds several entries; their conditions need not be identical. Equal values may be shown once. Read-outs that look alike come from different tables or passages of the source.
Assays:
Assay type in all cases: biochemical
p38α = p38α (Homo sapiens, UniProt Q16539); test: Assay for p38 kinase inhibition (p38α);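 further: radiometric p38 kinase assay, peptide substrate phosphorylation with γ-32P-ATP, 40 min at room temperature, incorporated counts measured by scintillation, inhibition relative to uninhibited kinase activity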
Chain of p38α (Q16539 whole entry): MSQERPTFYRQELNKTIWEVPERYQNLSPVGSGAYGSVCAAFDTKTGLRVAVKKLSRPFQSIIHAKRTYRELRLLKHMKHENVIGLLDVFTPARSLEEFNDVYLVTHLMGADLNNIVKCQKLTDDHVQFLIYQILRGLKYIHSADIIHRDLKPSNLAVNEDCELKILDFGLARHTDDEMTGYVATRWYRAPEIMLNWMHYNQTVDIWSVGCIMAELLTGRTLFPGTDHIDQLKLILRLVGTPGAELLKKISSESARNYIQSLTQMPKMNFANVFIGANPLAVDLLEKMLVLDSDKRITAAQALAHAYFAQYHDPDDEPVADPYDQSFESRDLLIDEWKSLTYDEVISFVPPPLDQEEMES

p38β = p38β (Homo sapiens, UniProt Q15759); test: p38 kinase inhibition assay, p38β
Chain of p38β (Q15759 whole entry): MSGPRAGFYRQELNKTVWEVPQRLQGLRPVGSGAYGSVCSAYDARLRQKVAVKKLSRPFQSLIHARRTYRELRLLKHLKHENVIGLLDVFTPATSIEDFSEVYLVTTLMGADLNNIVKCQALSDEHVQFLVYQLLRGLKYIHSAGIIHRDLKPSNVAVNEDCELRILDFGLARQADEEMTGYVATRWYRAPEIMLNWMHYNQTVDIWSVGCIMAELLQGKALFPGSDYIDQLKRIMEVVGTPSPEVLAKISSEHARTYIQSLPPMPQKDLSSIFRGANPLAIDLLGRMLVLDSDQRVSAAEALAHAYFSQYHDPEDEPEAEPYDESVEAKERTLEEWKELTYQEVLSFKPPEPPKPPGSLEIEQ
Protocol: The compounds to be tested were solubilized in DMSO and diluted into water to the desired concentrations. The p38 kinase was diluted to 10 μg/ml into a buffer containing 20 mM MOPS, pH 7.0, 25 mM beta-glycerol phosphate, 2 mg/ml gelatin, 0.5 mM EGTA, and 4 mM DTT.
The reaction was carried out by mixing 20 μl test compound with 10 μl of a substrate cocktail containing 500 μg/ml peptide substrate and 0.2 mM ATP (+200 μCi/ml gamma-32P-ATP) in a 4×assay buffer. The reaction was initiated by the addition of 10 μl of p38 kinase. Final assay conditions were 25 mM MOPS, pH 7.0, 26.25 mM beta-glycerol phosphate, 80 mM KCl, 22 mM MgCl2, 3 mM MgSO4, 1 mg/ml gelatin, 0.625 mM. […] After a 40 minute incubation at room temperature, the reaction was stopped by the addition of 10 μl per reaction of 0.25 M phosphoric acid.
A portion of the reaction was spotted onto a disk of P81 phosphocellulose paper, the filters were dried for 2 minutes and then washed 4× in 75 mM H3PO4. The filters were rinsed briefly in 95% ethanol, dried, then placed in scintillation vials with liquid scintillation cocktail.
Alternatively, the substrate is previously biotinylated and the resulting reactions are spotted on SAM^2TM streptavidin filter squares (Promega). The filters are washed 4× in 2M NaCl, 4× in 2M NaCl with 1% phosphoric acid, 2× in water, and briefly in 95% ethanol. The filter squares are dried and placed in scintillation vials with liquid scintillation cocktail.
(§1) Counts incorporated are determined on a scintillation counter. Relative enzyme activity is calculated by subtracting background counts (counts measured in the absence of enzyme) from each result, and comparing the resulting counts to those obtained in the absence of inhibitor. IC50 values were determined with curve-fitting plots available with common software packages. Approximate IC50 values were calculated using formula
(§2) where A=fractional activity and i=total inhibitor concentration.
Activity with regard to p38β was also tested for compounds of the invention to determine the influence of the position of the piperidinyl or piperazinyl substituent. The influence of substitution on the benzyl moiety attached to the 4-position of the piperazine or piperidine was also tested.

cdc2 = cdc2 (Homo sapiens, UniProt P06493); test: Kinase specificity, cdc2; settings: approximate IC50; tested at 50 μM, calculated using the formula in Example 22
Chain of cdc2 (P06493 whole entry, species assumed): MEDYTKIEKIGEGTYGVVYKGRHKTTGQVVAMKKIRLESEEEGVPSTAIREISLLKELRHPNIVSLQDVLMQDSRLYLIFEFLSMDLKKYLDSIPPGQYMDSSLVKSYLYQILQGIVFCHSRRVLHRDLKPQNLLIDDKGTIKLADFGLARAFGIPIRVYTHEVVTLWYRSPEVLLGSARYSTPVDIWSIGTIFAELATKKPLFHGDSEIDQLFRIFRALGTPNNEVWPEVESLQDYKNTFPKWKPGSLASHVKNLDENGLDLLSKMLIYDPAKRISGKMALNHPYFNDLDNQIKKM
Chain of cdc2 (P14635 whole entry partner, species assumed): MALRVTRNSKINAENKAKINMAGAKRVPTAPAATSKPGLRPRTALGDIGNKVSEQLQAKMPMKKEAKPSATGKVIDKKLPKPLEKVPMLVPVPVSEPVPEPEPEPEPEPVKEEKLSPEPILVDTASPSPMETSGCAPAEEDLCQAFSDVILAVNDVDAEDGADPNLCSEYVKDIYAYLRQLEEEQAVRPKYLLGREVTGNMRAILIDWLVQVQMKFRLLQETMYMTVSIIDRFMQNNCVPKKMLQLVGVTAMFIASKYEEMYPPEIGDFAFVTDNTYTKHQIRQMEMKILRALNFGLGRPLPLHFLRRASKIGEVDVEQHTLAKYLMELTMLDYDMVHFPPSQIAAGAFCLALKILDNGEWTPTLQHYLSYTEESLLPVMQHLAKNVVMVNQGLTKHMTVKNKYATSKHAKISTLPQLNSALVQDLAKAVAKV
Protocol: as §1, §2
(§3) The specificity of the compounds of the invention was also tested with respect to other kinases, including p38-γ, ERK-2, PKA, PKC, cdc-2, EGF-R, and DNA-PK as shown in Table 4. The compounds tested are the 4-benzylpiperidinyl indole-5- and 6-carboximides with the number indicating the ring position of the carboxamide.
(§4) The exception is for p38α values where the IC50 values were determined from concentration dependent curve fitting analysis.

DNA-PK = DNA-PK (Homo sapiens, UniProt P78527); test: Kinase specificity, DNA-PK; settings: approximate IC50; tested at 50 μM, calculated using the formula in Example 22
Protocol: as §1, §2, §3, §4

EGF-R = EGF-R (Homo sapiens, UniProt P00533); test: Kinase specificity, EGF-R; settings: approximate IC50; tested at 50 μM, calculated using the formula in Example 22
Chain of EGF-R (P00533 25-1210, species assumed): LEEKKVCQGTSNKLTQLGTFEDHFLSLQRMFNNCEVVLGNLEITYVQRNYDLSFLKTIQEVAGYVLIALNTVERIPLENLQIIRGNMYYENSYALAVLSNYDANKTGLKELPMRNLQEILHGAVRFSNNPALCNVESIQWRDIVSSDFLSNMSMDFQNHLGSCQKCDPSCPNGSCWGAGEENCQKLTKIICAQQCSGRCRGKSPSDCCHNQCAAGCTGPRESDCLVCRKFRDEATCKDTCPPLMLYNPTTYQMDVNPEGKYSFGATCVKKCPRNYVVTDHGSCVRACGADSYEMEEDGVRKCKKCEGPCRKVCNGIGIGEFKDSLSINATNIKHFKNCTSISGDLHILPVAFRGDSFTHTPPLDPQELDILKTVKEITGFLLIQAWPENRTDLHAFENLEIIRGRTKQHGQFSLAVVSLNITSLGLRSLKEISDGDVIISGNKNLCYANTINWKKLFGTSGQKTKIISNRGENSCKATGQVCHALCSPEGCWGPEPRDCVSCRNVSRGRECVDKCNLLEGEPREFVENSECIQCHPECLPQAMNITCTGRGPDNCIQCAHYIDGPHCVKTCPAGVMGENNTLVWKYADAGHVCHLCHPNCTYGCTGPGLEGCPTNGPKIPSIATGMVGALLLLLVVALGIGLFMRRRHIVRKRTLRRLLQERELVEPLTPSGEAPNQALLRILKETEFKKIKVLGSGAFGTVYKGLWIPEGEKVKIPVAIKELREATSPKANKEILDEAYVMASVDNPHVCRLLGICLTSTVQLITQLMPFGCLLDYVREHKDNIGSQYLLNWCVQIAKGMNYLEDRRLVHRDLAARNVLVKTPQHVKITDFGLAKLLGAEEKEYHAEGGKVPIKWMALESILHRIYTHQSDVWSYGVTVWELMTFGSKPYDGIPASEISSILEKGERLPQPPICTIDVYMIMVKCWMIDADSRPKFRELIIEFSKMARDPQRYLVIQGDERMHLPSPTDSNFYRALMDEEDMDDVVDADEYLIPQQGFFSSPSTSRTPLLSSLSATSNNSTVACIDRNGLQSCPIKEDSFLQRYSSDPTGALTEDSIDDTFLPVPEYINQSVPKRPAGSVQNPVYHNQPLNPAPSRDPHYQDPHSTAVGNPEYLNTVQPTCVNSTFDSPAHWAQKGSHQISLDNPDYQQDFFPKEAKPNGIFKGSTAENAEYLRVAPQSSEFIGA
Protocol: as §1, §2, §3, §4

ERK-2 = ERK-2 (Homo sapiens, UniProt P28482); test: Kinase specificity, ERK-2; settings: approximate IC50; tested at 50 μM, calculated using the formula in Example 22
Chain of ERK-2 (P28482 whole entry, species assumed): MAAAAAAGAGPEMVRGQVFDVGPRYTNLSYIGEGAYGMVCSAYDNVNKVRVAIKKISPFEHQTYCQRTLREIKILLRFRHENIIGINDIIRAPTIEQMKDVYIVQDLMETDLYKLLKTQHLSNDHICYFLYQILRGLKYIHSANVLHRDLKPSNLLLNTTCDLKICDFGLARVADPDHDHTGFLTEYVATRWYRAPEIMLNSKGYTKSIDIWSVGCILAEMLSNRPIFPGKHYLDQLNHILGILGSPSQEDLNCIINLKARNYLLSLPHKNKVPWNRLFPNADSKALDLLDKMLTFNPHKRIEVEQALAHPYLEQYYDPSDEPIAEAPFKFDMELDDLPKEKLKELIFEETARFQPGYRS
Protocol: as §1, §2, §3, §4

PKA = PKA (Homo sapiens, UniProt P17612); test: Kinase specificity, PKA; settings: approximate IC50; tested at 50 μM, calculated using the formula in Example 22
Protocol: as §1, §2, §3, §4

PKC = test: Kinase specificity, PKC; settings: approximate IC50; tested at 50 μM, calculated using the formula in Example 22
Protocol: as §1, §2, §3, §4

p38-γ = target: T1, p38-γ (Homo sapiens, UniProt P53778); test: Kinase specificity, p38-γ; settings: approximate IC50; tested at 50 μM, calculated using the formula in Example 22
T1 sequence (P53778 1-367): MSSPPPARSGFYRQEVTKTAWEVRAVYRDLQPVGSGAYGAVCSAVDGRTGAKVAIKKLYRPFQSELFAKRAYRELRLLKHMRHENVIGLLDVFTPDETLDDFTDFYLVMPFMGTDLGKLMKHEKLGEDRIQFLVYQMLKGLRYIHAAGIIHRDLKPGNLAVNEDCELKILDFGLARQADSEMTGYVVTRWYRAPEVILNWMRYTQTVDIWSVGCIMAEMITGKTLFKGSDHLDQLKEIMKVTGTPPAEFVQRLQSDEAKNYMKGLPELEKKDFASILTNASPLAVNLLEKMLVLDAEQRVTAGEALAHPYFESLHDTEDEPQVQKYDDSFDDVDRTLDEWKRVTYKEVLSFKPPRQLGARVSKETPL
Protocol: as §1, §2, §3, §4

[1] = Table 5, read-out: IC50, inhibition of p38α
[2] = at 50 μM concentration of the compound, Table 3, read-out: percent inhibition of p38β activity
[3] = Table 1, by ring position of the piperidinyl or piperazinyl substituent on indole, read-out: IC50 for inhibition of p38α
[4] = at 50 μM concentration of the compound, Table 3

| Compound | IC50 (p38α; [1]) | inhibition at 50 µM (p38β; [2]) [%] | further results |
| --- | --- | --- | --- |
| CCN(CC)CCCn1ccc2cc(C(=O)N3CCC(Cc4ccccc4)CC3)c(Cl)cc21 [1-(Diethylamino)-n-propyl-6-chloro-(4-benzylpiperidinyl)-indole-5-carboxamide] | 199 nM |  |  |
| COc1cc2[nH]cc(C(=O)NCCN(C)C)c2cc1C(=O)N1CCC(Cc2ccccc2)CC1 [6-methoxy-3-(2-dimethylaminoethylamino)carboxamidyl-(4-benzylpiperidinyl)indole-5-carboxamide] | 64.6 nM |  |  |
| O=C(c1c[nH]c2ccccc12)N1CCN(Cc2ccccc2)CC1 [Piperazinyl 3] |  | 77 | IC50 (p38α; [3]): 5440 nM |
| CCN(CC)CCn1ccc2cc(C(=O)N3CCC(Cc4ccc(F)cc4)CC3)ccc21 [1-(Diethylamino)-ethyl-(4′-fluoro-4-benzylpiperidinyl)-indole-5-carboxamide] | 354 nM |  |  |
| O=C(c1ccc2[nH]ccc2c1)N1CCC(Cc2ccccc2)CC1 [Piperidinyl 5, 4-Benzylpiperidinyl-indole-5-carboxamide] | 523 nM and 577 nM | 96 | IC50 (p38α; [3]): 242 nM |
| COc1cc2[nH]ccc2cc1C(=O)N1CCC(Cc2ccc(F)cc2)CC1 [6-methoxy-(4-(4fluorobenzyl)piperidinyl)indole-5-carboxamide] | 159 nM |  |  |
| O=C(c1ccc2c(ccn2C(=O)c2ccncc2)c1)N1CCC(Cc2ccccc2)CC1 [drawing 83] | 405 nM |  |  |
| CCN(CC)CCCn1ccc2cc(C(=O)N3CCC(Cc4ccccc4)CC3)ccc21 [1-(Diethylamino)n-propyl-(4-benzylpiperidinyl)-indole-5-carboxamide] | 474 nM |  |  |
| O=C(c1ccc2c(ccn2C(=O)c2ccncc2)c1)N1CCC(Cc2ccccc2)CC1 [drawing 82] | 871 nM |  |  |
| Cc1cc2c(Cl)c(C(=O)N3CCC(Cc4ccccc4)CC3)ccc2[nH]1 | 489 nM |  | inhibition at 0.2 µM (p38α; at 0.2 μM): 43% |
| O=C(c1cc2ccccc2[nH]1)N1CCC(Cc2ccccc2)CC1 [Piperidinyl 2] |  | 12 | IC50 (p38α; [3]): 3260 nM |
| 4-(4-Chlorobenzyl)piperazinyl-indole-5-carboxamide [Piperazinyl 5 4-Cl] |  |  | percent inhibition of p38β activity (p38β; [4]): 77% |
| O=C(c1cc2ccccc2[nH]1)N1CCN(Cc2ccccc2)CC1 [Piperazinyl 2] |  | 27 | IC50 (p38α; [3]): > 30000 nM |
| O=C(c1ccc2[nH]cnc2c1)N1CCC(Cc2ccccc2)CC1 [4-Benzyl-piperidinyl-benzimidazole-5-carboxamide] | 635 nM |  | inhibition at 50 µM (p38β; compounds tested at 50 μM, read-out: inhibition of p38β): 85% |
| O=C(c1ccc2[nH]cnc2c1)N1CCC(Cc2ccc(F)cc2)CC1 | 390 nM |  |  |
| O=C(c1cccc2cc[nH]c12)N1CCC(Cc2ccccc2)CC1 [Piperidinyl 7] |  | 45 | IC50 (p38α; [3]): > 30000 nM |
| O=C(c1cccc2[nH]ccc12)N1CCN(Cc2ccccc2)CC1 [Piperazinyl 4] |  | 68 |  |
| NC(=O)c1ccc2nc(N3CCN(Cc4cccc(Cl)c4)CC3)[nH]c2c1 [4-(3-chlorobenzyl)-piperazinyl-benzimidazole-5-carboxamide] |  |  | inhibition of p38β (p38β; compounds tested at 50 μM): 66% |
| O=C(c1ccc2[nH]ccc2c1)N1CCN(Cc2ccccc2)CC1 [Piperazinyl 5] |  | 59 |  |
| CCN(CC)CCn1ccc2cc(C(=O)N3CCC(Cc4ccccc4)CC3)c(OC)cc21 [1-(Diethylaminoethyl)-6-methoxy-(4-benzylpiperidinyl)-indole-5-carboxamide] | 184 nM |  |  |
| O=C(c1ccc2c(C(=O)C(F)(F)F)c[nH]c2c1)N1CCC(Cc2ccccc2)CC1 [3-trifluoroacetyl-(4-benzylpiperidinyl)indole-6-carboxamide] |  |  | inhibition of p38α (p38α; at 1 μM): 41% |
| O=C(c1ccc2cc[nH]c2c1)N1CCC(Cc2ccccc2)CC1 [Piperidinyl 6, 4-benzylpiperidinyl-indole-6-carboxamide] |  |  | IC50 (cdc2): > 500000 nM; percent inhibition of p38β activity (p38β; [4]): 92%; IC50 (DNA-PK): 450000 nM; IC50 (EGF-R): > 500000 nM; IC50 (ERK-2): > 300000 nM; IC50 (PKA): > 500000 nM; IC50 (PKC): > 500000 nM; IC50 (p38-γ): > 300000 nM |
| O=C(c1c[nH]c2ccccc12)N1CCC(Cc2ccccc2)CC1 [Piperidinyl 3] |  | 96 | IC50 (p38α; [3]): 200 nM |
| O=C(c1cccc2[nH]ccc12)N1CCC(Cc2ccccc2)CC1 [Piperidinyl 4] |  | 96 | IC50 (p38α; [3]): 200 nM |
| O=C(c1cccc2cc[nH]c12)N1CCN(Cc2ccccc2)CC1 [Piperazinyl 7] |  | 7 |  |
| CC(=O)N1CCC(Cc2ccc(F)cc2)C1 (stereo not shown) |  |  | inhibition at 1 µM (p38α; at 1 μM): 51% |
| O=C(c1ccc2[nH]cc(CN3CCOCC3)c2c1)N1CCC(Cc2ccccc2)CC1 | 6570 nM |  |  |
| O=C(c1ccc2cc[nH]c2c1)N1CCN(Cc2ccccc2)CC1 [Piperazinyl 6] |  | 56 | IC50 (p38α; [3]): 4970 nM |

Source: patent publication US6589954B1, “Compounds and methods to treat cardiac failure and other disorders” (Scios, Inc., priority 1998, dated 2003)
